Among the data in patent US20240246920A1, “TRIAZOLE DERIVATIVES WITH ANTIFUNGAL ACTIVITY” (King's College London, priority 2020, published 2024) are MIC values, retold here.

Assay [1] relates to C. glabrata NCPF8018. In words: Candida panel MIC, serial dilution in 96-well plates. It counts as cell-based, Candida glabrata. The note with it: Nakaseomyces glabratus, NCPF8018; Table 4, common panel; 24 hours, ≥50% inhibition; read-out: MIC C. glabrata NCPF8018. As for the experimental part:
(§1) The minimum inhibitory concentration of test compounds were determined in a panel of Candida species (see Table 4 below), using the a serial dilution method in 96-well plates using the following protocol.
(§2) Starter cultures of fungal strains to be tested were grown in 3 mL of RPMI 2% glucose media incubated at 37° C. with shaking at 200 rpm overnight. The culture media used was 900 mL H2O; 10.4 g RPMI 1640 (with L-glutamine and a pH indicator but without bicarbonate); 34.5 g MOPS and 18 g glucose. The pH of the media was adjusted to 7.0 with 1 M sodium hydroxide.
(§3) Solutions of the compound to be tested were prepared by dissolving the compound in DMSO and subsequently into media to the desired concentrations. […] The last two rows of each plate were control rows containing the culture media alone and the media plus fungi.
(§4) The fungi starter cultures were diluted 1:10 in water in cuvettes. This was then further diluted to an optical density (OD600) of 0.01 in media. 100 μL of the fungi was added to each well giving a starting concentration of fungus of 0.5-5×10^5/mL. One species of fungus was used on each plate. The plates were then held at 37° C. for 24 hours.
(§5) A plate reader was used to measure growth in each well at OD530 nm and the MIC was determined for each test compound. The MIC is defined as the lowest concentration giving rise to inhibition of ≥50% of that of the drug-free control well containing the fungus and media.

The test system of assay [2] is Candida auris TDG2211. In words: microbe, parasite or virus in culture. Format: cell-based. Particulars: Candidozyma auris, TDG2211; Table 4, extended panel; 24 hours, ≥50% inhibition; read-out: MIC Candida auris TDG2211. As for the experimental part:
as §1, §2, §3, §4, §5
(§6) The Candida auris strains shown in Table 7 were either taken from the National Collection of Pathogenic Fungi (NCPF) or collected as part of ongoing surveillance studies. The strains were characterised as follows.

In assay [3] the test system is Candida auris TDG2506. The assay is described as follows: microbe, parasite or virus in culture. It counts as cell-based. Particulars: Candidozyma auris, TDG2506; Table 4, extended panel; 24 hours, ≥50% inhibition; read-out: MIC Candida auris TDG2506. On the procedure: as §1, §2, §3, §4, §5, §6
In assay [4] the test system is C. auris 8984. The assay is described as follows: Candida panel MIC, serial dilution in 96-well plates. Format: cell-based, Candida auris. The note with it: Candidozyma auris, 8984; Table 4, extended panel; 24 hours, ≥50% inhibition; read-out: MIC C. auris 8984. On the procedure:
as §1, §2, §3, §4, §5, §6

For assay [5], the system named is C. auris 8977. The assay is described as above. It counts as cell-based, Candida auris. The note with it: Candidozyma auris, 8977; Table 4, extended panel; 24 hours, ≥50% inhibition; read-out: MIC C. auris 8977. As for the experimental part:
as §1, §2, §3, §4, §5, §6

Assay [6] relates to C. auris 8971. The description is as above. The note with it: Candidozyma auris, 8971; Table 4, extended panel; 24 hours, ≥50% inhibition; read-out: MIC C. auris 8971. Format: cell-based, Candida auris. As for the experimental part:
as §1, §2, §3, §4, §5, §6

The test system of assay [7] is C. tropicalis NCPF8760. The description is as above. Format: cell-based. Particulars: NCPF8760, Table 4, common panel, 24 hours, ≥50% inhibition, read-out: MIC C. tropicalis NCPF8760. On the procedure:
as §1, §2
(§7) Solutions of the compound to be tested were prepared by dissolving the compound in DMSO and subsequently into media to the desired concentrations. 200 μL of compound solution was then added to the wells of the 96-well plate using a serial dilution method row-by row of the plate to give a compound concentration gradient across the plate of from 128 μg/mL to 0.25 μg/mL. The last two rows of each plate were control rows containing the culture media alone and the media plus fungi.
as §4, §5

Assay [8] deals with Candida auris TDG1102. The assay is described as above. It counts as cell-based. The note with it: Candidozyma auris, TDG1102; Table 4, extended panel; 24 hours, ≥50% inhibition; read-out: MIC Candida auris TDG1102. As for the experimental part:
as §1, §2, §7, §4, §5

Assay [9] deals with Candida auris TDG2512. The assay is described as above. It counts as cell-based. The note with it: Candidozyma auris, read-out: MIC Candida auris TDG2512. As for the experimental part:
as §1, §2, §7, §4, §5

Assay [10] deals with C. auris TDG1912. The assay is described as above. It counts as cell-based. The note with it: Candidozyma auris, read-out: MIC C. auris TDG1912. On the procedure:
as §1, §2, §7, §4, §5

In assay [11] the test system is C. albicans NCPF3281. The description is as above. Format: cell-based, Candida albicans. Particulars: Candida albicans, read-out: MIC C. albicans NCPF3281. On the procedure: as §1, §2, §7, §4, §5
Assay [12] relates to C. krusei NCPF3876. In words: microbe, parasite or virus in culture. The note with it: Pichia kudriavzevii, NCPF3876; Table 4, common panel; 24 hours, ≥50% inhibition; read-out: MIC C. krusei NCPF3876. Format: cell-based, Candida krusei. On the procedure:
as §1, §2, §3, §4, §5

The test system of assay [13] is C. parapsilosis NCPF3209. In words: microbe, parasite or virus in culture. It counts as cell-based, Candida parapsilosis. Particulars: Lodderomyces parapsilosis, NCPF3209; Table 4, common panel; 24 hours, ≥50% inhibition; read-out: MIC C. parapsilosis NCPF3209. On the procedure:
as §1, §2, §3, §4, §5

[14] abbreviates: TDG2512, Table 4, extended panel, 24 hours, ≥50% inhibition.
Setting [15] is: TDG1912, Table 4, 24 hours, ≥50% inhibition.
Setting [16] is: NCPF3281, Table 4, common panel, 24 hours, ≥50% inhibition.

In brackets after ≈: the same amount, converted by molar mass. Read-outs that look alike come from different tables or passages of the source.

Turning to `CN1CCC(Oc2ccc(NC3CCN(CC(O)(Cn4cncn4)c4ccc(F)cc4F)CC3)cc2)CC1` (stereo not shown) [Example 98], the MIC is 8 µg/mL (≈ 15.2 µM) in assay [1]; above 8 µg/mL in [2]; above 8 µg/mL in assay [3]; above 8 µg/mL in assay [4]; 8 µg/mL (≈ 15.2 µM) in [5]; 8 µg/mL (≈ 15.2 µM) in assay [6]. Moreover, the MIC in assay [7] was above 8 µg/mL; in assay [8] it was above 8 µg/mL; in assay [9] (setting [14]) it was 2 µg/mL (≈ 3.8 µM); in assay [10] (setting [15]), above 8 µg/mL; in [11] (setting [16]), 0.125 µg/mL (≈ 0.237 µM); in [12] it was 8 µg/mL (≈ 15.2 µM). The MIC in assay [13] amounted to 0.125 µg/mL (≈ 0.237 µM).
Consider `Cc1ccc(-c2ccc(NC3C[C@@H]4CN(CC(O)(Cn5cncn5)c5ccc(F)cc5F)C[C@@H]4C3)cc2)cc1F` (stereo partly shown) [Example 99], for which the MIC in assay [1] is 8 µg/mL (≈ 14.6 µM); in assay [2], 0.125 to 16 µg/mL (≈ 0.228 to 29.2 µM); in assay [3] it was 32 µg/mL (≈ 58.4 µM); in [4], 32 µg/mL (≈ 58.4 µM); in assay [5], 1 to 4 µg/mL (≈ 1.83 to 7.3 µM); in [6], 1 to 4 µg/mL (≈ 1.83 to 7.3 µM). Besides, the MIC is above 32 µg/mL in assay [7]; 16 to 32 µg/mL (≈ 29.2 to 58.4 µM) in assay [8]; 0.5 µg/mL (≈ 0.913 µM) in assay [9] (setting [14]); 16 µg/mL (≈ 29.2 µM) in assay [10] (setting [15]); at most 0.03 µg/mL in assay [11] (setting [16]); 1 µg/mL (≈ 1.83 µM) in assay [12]. Moreover, the MIC in [13] was at most 0.03 µg/mL.
In the case of `OC(CN1CCC2(CCN(c3ccc(OCCN4CCOCC4)cc3)CC2)C1)(Cn1cncn1)c1ccc(F)cc1F` (stereo not shown) [Example 88], the MIC in assay [1] came to 4 µg/mL (≈ 6.86 µM); in [2], 0.125 µg/mL (≈ 0.215 µM); in assay [3], 0.25 µg/mL (≈ 0.429 µM); in assay [4], 0.25 µg/mL (≈ 0.429 µM); in assay [5], 0.125 µg/mL (≈ 0.215 µM); in assay [6] it was 0.25 µg/mL (≈ 0.429 µM). The MIC in assay [7] amounted to 1 µg/mL (≈ 1.72 µM); in [8], 0.5 µg/mL (≈ 0.858 µM); in assay [9] (setting [14]), 0.0625 µg/mL (≈ 0.107 µM); in assay [10] (setting [15]), 0.5 µg/mL (≈ 0.858 µM); in assay [11] (setting [16]), 0.0313 µg/mL (≈ 0.0537 µM); in [12], 1 µg/mL (≈ 1.72 µM). The MIC in [13] is 0.0313 µg/mL (≈ 0.0537 µM).
On to `OC(CN1CCC2(CCC(Nc3ccc(OCCN4CCOCC4)cc3)CC2)C1)(Cn1cncn1)c1ccc(F)cc1F` (stereo not shown) [Example 87], for which the MIC was determined as 4 µg/mL (≈ 6.7 µM) in assay [1]; 0.125 µg/mL (≈ 0.209 µM) in [2]; 0.125 µg/mL (≈ 0.209 µM) in [3]; 0.25 µg/mL (≈ 0.419 µM) in [4]; 0.25 µg/mL (≈ 0.419 µM) in assay [5]; 0.25 µg/mL (≈ 0.419 µM) in [6]. The MIC in assay [7] worked out at 2 µg/mL (≈ 3.35 µM); in assay [8], 0.5 µg/mL (≈ 0.838 µM); in assay [9] (TDG2512, 24 h), 0.0625 µg/mL (≈ 0.105 µM); in assay [10] (TDG1912, 24 h), 0.5 µg/mL (≈ 0.838 µM); in assay [11] (NCPF3281, 24 h), 0.313 µg/mL (≈ 0.525 µM); in [12], 1 µg/mL (≈ 1.68 µM). Moreover, the MIC in [13] was found to be 0.313 µg/mL (≈ 0.525 µM).
